{"source": "patent US6878747B2", "about": "“Systemic formulations containing beta-carotene and derivatives thereof” (priority 2001, dated 2005)", "key": {"[1]": {"test": "Soluabilization in THF, Example 11", "type": "physicochemical", "details": "hand shaking, results approximate", "protocol": "All experimental substances (retinol, retinoic acid, 9-cis retinoic acid, retinal) were from Sigma (St. Louis, Mo.). All experimental substances were provided in sealed ampules.\nThe solvent, Tetrahydrofuran (stabilized with BHT) was also from Sigma.^1\n^1 In the soluabilization experiments described in Examples 11 and 12 a small amount of yellow material appeared on the bottom of the stopper. In addition, since THF is somewhat volatile, the results are approximate.\n2 ml shell vials from Electron Microscopy Sciences (Fort Washington, Pa.) Hamilton glass syringes (100 microliter, 250 microliter, 500 microliter) were from Fisher Scientific (Pittsburgh, Pa.). Silicone stoppers and other glassware were also from Fisher Scientific.\nAll of a retinoic acid ampule (100 mg ) was poured into a 2 ml shell vial and stoppered with a silicon stopper. Using a 500 microliter Hamilton syringe, 500 microliters of THF was added to the vial and then shaken by hand.\na. 25 mg ampule of retinol was poured into a 2 ml shell vial and it soluabilized completely in 250 microliters of THF.\nb. 100 mg ampule of retinol was poured into a vial and it soluabilized completely in 0.5 ml of THF.\nc. 100 mg ampule of retinol was poured into a vial and it soluabilized completely in 0.1 ml THF.\n20 microliters THF from a Hamilton syringe was added to an ampule containing 1 mg of 9-cis retinoic acid. It appeared that complete soluability was achieved.\nA 100 mg ampule of retinal was emptied into a 2 ml shell vial, and was completely soluabilized with hand shaking in 100 microliters of THF."}, "[2]": {"test": "Soluabilization in THF, Example 12", "type": "physicochemical", "details": "results approximate", "protocol": "All materials and sources were the same as in Example 11.The only additions were the use of 4.3 ml glass shell vials from Electron Microscopy Sciences, 10 ml glass centrifuge tubes from Fisher, and a 1.25 ml glass Hamilton syringe from Fisher.\nAll of a retinoic acid (1 gram) ampule was poured into a 10 ml glass centrifuge tube and stoppered with a silicon stopper. 7 ml of THF was added to the tube and then shaken by hand. This was performed twice.\nAll of a 1 gram ampule was poured into a 4.3 ml shell vial and stoppered with a silicon stopper. Using a 1.25 ml Hamilton syringe, 1.0 ml of THF was added to the vial and then shaken by hand. It soluabilized completely.\n10 microliters THF from a Hamilton syringe was added to a ampule containing 1 mg of 9-cis retinoic acid. It appeared that complete soluability was achieved.\nA 500 mg ampule of retinal was emptied into a 2 ml shell vial, and was completely soluabilized with hand shaking in 0.5 ml of THF."}, "[3]": {"test": "Maximum concentration of beta-carotene dissolving in THF", "type": "physicochemical", "protocol": "The formulation broadly comprises from about 0.1 to about 9.3 mg and preferably from about 1 to about 6 mg of beta-carotene per ml of tetrahydrofuran. The maximum concentration of beta-carotene capable of dissolving in THF is 9.3 mg/ml. Solubility problems arise above this concentration of beta-carotene. Beta-carotene and derivatives thereof for use in the present invention is commercially available from Sigma Chemical Co. or Fisher Scientific Co."}, "human hepatocytes": {"system": "human hepatocytes", "test": "Absorption of beta-carotene in THF in human hepatocytes", "type": "in vitro ADME", "details": "10 μM beta-carotene, 0.05% THF, 24 hours incubation; three samples", "protocol": "The following experiment was performed three times to determine the absorption of beta-carotene in THF in human hepatocytes.\nBeta-carotene was dissolved in a solution containing 99.9% (w/w) tetrahydrofuran (THF) with 0.025% (w/w) butylated hydroxytoluene (BHT) to obtain a 2000× (20 mM) stock solution. While the incubation media was rapidly stirred, the stock solution was added to create a final 1× dosing solution containing 10 μM beta-carotene and 0.05% THF.\nHepatocytes were isolated and cryopreserved according to the methods described in Li, A. P., et al., Isolation and culturing of hepatocytes from human liver, J. Tiss. Culture Methods, 14:139-146(1992); Li rat and human hepatocytes as multicellular spheroids, In Vitro Cell. Dev. Biol., 28A:673-677 (1992); and Loretz, L. J. et al., Promutagen activation by freshly isolated and cryopreserved rat hepatocytes, Environ. Mol. Mutag., 12(3):335-341. Portions of liver tissue were processed into hepatocytes by collagenase-based digestion of connective tissue, followed by manual and mechanical separation and washing with media. Isolated hepatocytes were counted to determine yield, and viability was measured using Trypan Blue™ exclusion. The viability of the cells was 90%. The cells were resuspended in the plating media described above at a density of 0.7×10^6 cells/mL. […]"}, "[4]": {"system": "human melanoma cell cultures", "test": "Beta-carotene treatment of melanoma cell cultures, Example 9", "type": "cell-based", "details": "beta-carotene 33 mg/ml in medium, 0.5% THF, 7 days", "protocol": "Experiment: Beta-carotene in tetrahydrofuran (THF) was added to McCoy's 5A modified medium at a concentration of 33 mg/ml with a final concentration of 0.5% THF. This supplemented medium was added to Leighton tubes (containing melanoma cells) after removal of un-supplemented medium and was replaced every 2 days during the 7 day experimental period. At the end of 7 days, the cultures were fixed in methanol and the cover slips were Giemsa stained."}, "[5]": {"system": "human melanoma cell cultures", "test": "Guanosine then beta-carotene treatment of melanoma cell cultures, Example 10", "type": "cell-based", "details": "7 days", "protocol": "Guanosine was added to McCoy's 5A modified medium at a concentration of 3 mg/ml. This supplemented medium was added to Leighton tubes after removal of an non-supplemented medium and was replaced every 2 days for 7 days. Beta-carotene in THF was added to McCoy's 5A modified medium at a concentration of 33 mg/ml with a final concentration of 0.5% THF. This supplemented medium was added to the Leighton tubes after removal of guanosine supplemented medium and was replaced every 2 days for an additional 7 day experimental period. At the end of 14 days, the cultures were fixed in methanol and the cover slips were Giemsa stained."}, "[6]": {"system": "intra-abdominal sepsis in a rat model", "details": "dietary supplementation; beta-carotene 90 mg/kg; cited from earlier work"}, "[7]": {"system": "right calf of a health professional", "details": "in vivo", "description": "Retinol, retinal, and retinoic acid, were each soluabilized in THF as described above and used as follows. A fingertip amount of each (e.g. retinoic acid, retinol retinal?) was rubbed into the right calf of a health professional."}, "[8]": {"system": "human with male pattern baldness", "test": "Topical use in human male pattern baldness", "type": "in vivo", "details": "in THF, applied daily to thinning vertex; within 4 months", "description": "A human with male pattern baldness applies retinol in THF daily to their thinning vertex."}, "[9]": {"details": "beta-carotene 33 mg/ml, 0.5% THF, after 7 days of guanosine 3 mg/ml"}}, "data": [{"compound": "CC1=C(/C=C/C(C)=C\\C=C\\C(C)=C\\C(=O)O)C(C)(C)CCC1", "note": "[9-cis retinoic acid]", "values": [{"measurement": "soluability in THF", "setting": "[1]", "result": "at least 50 mg/ml THF"}, {"measurement": "soluability in THF", "setting": "[2]", "result": "about 100 mg/ml THF"}]}, {"compound": "CC1=C(/C=C/C(C)=C/C=C/C(C)=C/C=C/C=C(C)/C=C/C=C(C)/C=C/C2=C(C)CCCC2(C)C)C(C)(C)CCC1", "note": "[beta-carotene]", "values": [{"measurement": "maximum concentration of beta-carotene capable of dissolving in THF", "setting": "[3]", "result": 9.3, "unit": "mg/mL"}, {"measurement": "detection of beta-carotene in the cells (dark regions, light microscope)", "setting": "human hepatocytes", "result": "presence of beta-carotene in the cells"}, {"measurement": "cell death in culture compared with control cultures", "setting": "[4]", "result": "a large segment of the starting population died"}, {"measurement": "morphology of the remaining cells", "setting": "[4]; Giemsa stained", "result": "most had triangular morphology and a large nucleus, consistent with neural cells, or were fusiform in shape"}, {"measurement": "cell death in culture", "setting": "[5]; [9]", "result": "did not cause the extensive cell death"}, {"measurement": "morphology of the surviving cells", "setting": "[5]; [9]", "result": "most of those had a neuronal morphology"}, {"measurement": "protective effect on intra-abdominal sepsis", "setting": "[6]", "result": "lesser effect"}]}, {"compound": "Nc1nc2c(ncn2[C@@H]2O[C@H](CO)[C@@H](O)[C@H]2O)c(=O)[nH]1", "note": "[guanosine, Guanosine]", "values": [{"measurement": "phenotypic changes in the overall cell population", "setting": "[5]; guanosine 3 mg/ml in medium", "result": "many cells with an increased nuclear to cytoplasmic ratio"}]}, {"compound": "CC1=C(/C=C/C(C)=C/C=C/C(C)=C/C=O)C(C)(C)CCC1", "note": "[retinal]", "values": [{"measurement": "soluability in THF", "setting": "[1]", "result": "about 1 gm/ml THF"}, {"measurement": "soluability in THF", "setting": "[2]", "result": "about 1 gm/ml THF"}, {"measurement": "signs of toxicity, topically or systemically", "setting": "[7]", "result": "no signs of toxicity"}]}, {"compound": "CC1=C(/C=C/C(C)=C/C=C/C(C)=C/C(=O)O)C(C)(C)CCC1", "note": "[retinoic acid]", "values": [{"measurement": "signs of toxicity, topically or systemically", "setting": "[7]", "result": "no signs of toxicity"}]}, {"compound": "CC1=C(/C=C/C(C)=C/C=C/C(C)=C/CO)C(C)(C)CCC1", "note": "[retinol]", "values": [{"measurement": "soluability in THF", "setting": "[1]", "result": "about 1 gm/ml THF"}, {"measurement": "soluability in THF", "setting": "[2]", "result": "about 1 gm/ml THF"}, {"measurement": "signs of toxicity, topically or systemically", "setting": "[7]", "result": "no signs of toxicity"}, {"measurement": "new hair growth (hair counts, investigator and patient assessment)", "setting": "[8]", "result": "significant new hair growth"}]}, {"compound": "Vitamin A", "values": [{"measurement": "protective effect on intra-abdominal sepsis", "setting": "[6]", "result": "significant protective effect"}]}]}
